From patent US5726012A, “Rapid, high capacity nucleic acid based assay” (E. I. du Pont de Nemours and Company, priority 1994, dated 1998) come the findings set out here.

In data set [1] the test system is HIV RF (HIV-1 RNA) in MT-2 cells. The data set can be described thus: HIV-1 RNA microtiter plate compound evaluation assay in HIV-1 infected MT-2 cells (gag capture/reporter probes). Type of data set: cell-based, HIV-1 (strain RF). How it is done:
Compounds to be evaluated for antiviral activity were dissolved in DMSO and diluted at least 1:50 in culture medium, to 2× the highest concentration to be tested. Further, three-fold serial dilutions of the compound in culture medium were performed directly in U bottom microtiter plates (Nunc). After compound dilution, MT-2 cells, which had been sub-cultured one day prior to infection, were added to a final concentration of 5×10^5 cells/ml (1×10^5 cells/well). Cells were incubated with compounds in a volume of 150 μl for 30 minutes at 37° C. in a CO2 incubator. For evaluation of antiviral potency, appropriate dilutions of HIV RF virus stock (50 μl) were added to culture wells containing the cells and the dilutions of the compounds to be tested. Eight wells per plate were left uninfected with 50 μl of medium added instead of virus, while eight wells were infected in the absence of any antiviral compound. For evaluation of compound toxicity, parallel plates were cultured without virus infection. After three days of culture at 37° C. in a humidified chamber inside a CO2 incubator, all but 25 μl of medium/well was removed from the HIV infected plates. 37 μl of 5M GED containing the biotinylated capture oligo was added to the remaining medium and settled cells in each well to a final concentration of 3M GED, 50 nM biotinylated capture oligo. Hybridization of the biotinylated capture oligo to HIV-1 RNA in the cell lysate was carried out in the same microplate well by sealing the plate and incubating for 16-20 hours in a 37° C. incubator. 124 μl of distilled water was added to each well to dilute the hybridization reaction three-fold, and 150 μl aliquots of this diluted mixture was transferred to streptavidin coated microtiter plate wells. The biotin oligo-RNA complex solution was incubated with the immobilized streptavidin for two hours at room temperature, after which the plates were washed six times with DuPont ELISA plate wash buffer (phosphate buffered saline (PBS)/0.05% Tween 20) with a Denley plate washer. A second hybridization was carried out by adding 120 μl of hybridization cocktail containing 4× standard saline citrate (0.15M NaCl, 0.015 sodium citrate) (SSC), 0.66% Triton X-100 and 6.66% deionized formamide, 1 mg/ml bovine serum albumin (BSA) and 5 nM `gag` AP reporter oligo to each well. After hybridization for one hour at 37° C., the plate was again washed six times in PBS/0.05% Tween 20. Alkaline phosphatase activity was detected by addition of 100 μl of substrate detection buffer, consisting of: 0.2 mM 4-methylumbelliferyl phosphate (MUBP, JBL Scientific) in 2.5M diethanolamine pH 8.9 (JBL), 10 mM MgCl2, 5 mM Zinc acetate dihydrate, and 5 mM n-hydroxyethyl-ethylene-diamine-triaceticacid. The plates were incubated at 37° C. and the fluorescence produced measured in a microplate fluorometer (Dynateck) exciting at 365 nm and emitting at 450 nm. A standard curve, prepared by adding known amounts of pDAB 72 in vitro RNA transcript to wells containing lysed, uninfected cells, was run on each microtiter plate.
In order to standardize the virus innoculum used in the evaluation of compounds for anti-vital efficacy, a dose response to ddC was determined at several different dilutions of each virus stock to be used. A dilution of each stock of HIV RF virus stock which gaven an IC90 for ddC of 0.2 ug/ml was selected and used in subsequent compound evaluation assays.
The microtiter plate compound evaluation assay described in Example 9 above was employed to evaluate the efficacy of cyclohexamide, di-deoxycytidine (ddC) and XJ104 (N,N'-bis[tert-butoxycarbonyl-valyl]-1,6-diphenyl-2S,5S-diamino-3R,4R-dihydroxy(triphenylphosphine adduct)-hexane) as described in WO91/18866, the disclosure of which is hereby incorporated by reference, utilizing the HIV-1 `gag` capture and reporter probes described in Example 2.
In the figures below the IC90 and TC50 are indicated. […]

Data set [2] can be described thus: MTT dye reduction cytotoxicity assay on parallel uninfected MT-2 cultures. Type of data set: cell-based, human. The following applies: human. As to the method:
(§1) Compounds to be evaluated for antiviral activity were dissolved in DMSO and diluted at least 1:50 in culture medium, to 2× the highest concentration to be tested. Further, three-fold serial dilutions of the compound in culture medium were performed directly in U bottom microtiter plates (Nunc). After compound dilution, MT-2 cells, which had been sub-cultured one day prior to infection, were added to a final concentration of 5×10^5 cells/ml (1×10^5 cells/well). Cells were incubated with compounds in a volume of 150 μl for 30 minutes at 37° C. in a CO2 incubator. For evaluation of antiviral potency, appropriate dilutions of HIV RF virus stock (50 μl) were added to culture wells containing the cells and the dilutions of the compounds to be tested. Eight wells per plate were left uninfected with 50 μl of medium added instead of virus, while eight wells were infected in the absence of any antiviral compound. For evaluation of compound toxicity, parallel plates were cultured without virus infection. After three days of culture at 37° C. in a humidified chamber inside a CO2 incubator, all but 25 μl of medium/well was removed from the HIV infected plates. […] Alkaline phosphatase activity was detected by addition of 100 μl of substrate detection buffer, consisting of: 0.2 mM 4-methylumbelliferyl phosphate (MUBP, JBL Scientific) in 2.5M diethanolamine pH 8.9 (JBL), 10 mM MgCl2, 5 mM Zinc acetate dihydrate, and 5 mM n-hydroxyethyl-ethylene-diamine-triaceticacid. The plates were incubated at 37° C. and the fluorescence produced measured in a microplate fluorometer (Dynateck) exciting at 365 nm and emitting at 450 nm. […]
(§2) In order to assess the potential cytotoxicity of compounds being evaluated for antiviral efficacy, an MTT dye reduction assay was performed at the end of the three day culture period on the parallel, uninfected, but compound treated cultures. […] Solubilized MTT dye product was quantitated using an ELISA microplate reader at 570 nm. […]
Background: Formazan colour is commonly taken as a measure of viable cells.

In the next data set the test system is MT-2 cells. The data set is described as above. Type of data set: cell-based, human. The following applies: uninfected MT-2 cells, three days culture; 50% reduction of absorbance at 570 nm in MTT assay; 4320 min. How it is done: as §1, §2
Where [3] appears, read: TC50 to IC90 ratio of greater than 3 regarded as antiviral efficacy.

≈ marks a conversion by molar mass, not a printed value. Read-outs that look alike come from different tables or passages of the source.

As to `C[C@@H]1C[C@@H]([C@H](O)CC2CC(=O)NC(=O)C2)C(=O)[C@@H](C)C1` [cyclohexamide], the IC90 (commonly the concentration needed for an effect of 90%) in data set [1] (Human immunodeficiency virus 1, MT2, 72 h, read-out: IC90 in the RNA assay) was determined as 0.45 mg/L (≈ 1.6 µM). For the same compound, in data set [1] (setting [3]), the “specific anti-viral efficacy (IC90 in RNA assay compared with TC50 in MTT assay)” value is “no specific anti-viral efficacy is apparent”. Moreover, the CC50 at 72 h in data set [2] (uninfected MT-2 cells, three days culture, 50% reduction of absorbance at 570 nm in MTT assay, read-out: TC50) was 0.45 mg/L (≈ 1.6 µM).
With `Nc1ccn([C@H]2CC[C@@H](CO)O2)c(=O)n1` [ddC, di-deoxycytidine], in data set [1], the “specific anti-viral efficacy (IC90 in RNA assay compared with TC50 in MTT assay)” value is “displays anti-viral efficacy”. Also, the IC90 in data set [1] (Human immunodeficiency virus 1, MT2, 72 h, HIV RF infected MT-2 cells, three days culture, 90% reduction of HIV-1 RNA, FIGS. 4-6, read-out: IC90 in the RNA assay) came out at 0.13 mg/L (≈ 0.615 µM); in data set [1] (Human immunodeficiency virus 1, MT2, selected dilution of each HIV RF virus stock, read-out: IC90 for ddC used to standardize virus innoculum), 0.2 mg/L (≈ 0.947 µM). For the same compound, in data set [2] (mt-2 cells), the CC50 at 72 h was more than 50 mg/L.
Regarding “N,N'-bis[tert-butoxycarbonyl-valyl]-1,6-diphenyl-2S,5S-diamino-3R,4R-dihydroxy(triphenylphosphine adduct)-hexane [XJ104]”, in data set [1] (HIV RF infected MT-2 cells, three days culture, 90% reduction of HIV-1 RNA, FIGS. 4-6), the “IC90 in the RNA assay” value was determined as 30 mg/L. For the same compound, the “specific anti-viral efficacy (IC90 in RNA assay compared with TC50 in MTT assay)” value in data set [1] (setting [3]) is given as “no specific anti-viral efficacy is apparent”. The TC50 with MT-2 cells was 2 mg/L.
